Test results taken from US10815230B2, “Casein kinase 1 delta inhibitor” (ELECTROPHORETICS LIMITED, priority 2015, dated 2020).
Marks after values point to notes of the source that are not given here.

What was measured:
[1] = target: ABL1 (F317L) phosphorylated (Homo sapiens, UniProt P00519, F317L); assay: KINOMEscan binding assay; details: read-out: % Ctrl @ 10000 nM
ALK (L1196M) = ALK (L1196M) (Homo sapiens, UniProt Q9UM73, L1196M); assay: KINOMEscan binding assay; details: read-out: % Ctrl @ 10000 nM
CSF1R-autoinhibited = CSF1R-autoinhibited (Homo sapiens, UniProt P07333); assay: KINOMEscan binding assay; details: read-out: % Ctrl @ 10000 nM
DMPK = DMPK (Homo sapiens, UniProt Q09013); assay: KINOMEscan binding assay; details: read-out: % Ctrl @ 10000 nM
FGFR3 (G697C) = FGFR3 (G697C) (Homo sapiens, UniProt P22607, G697C); assay: KINOMEscan binding assay; details: read-out: % Ctrl @ 10000 nM
GSK3B [2] = target: T1, GSK3B (Homo sapiens, UniProt P49841); assay: KINOMEscan binding assay; details: read-out: % Ctrl @ 10000 nM
T1 sequence (P49841 whole entry): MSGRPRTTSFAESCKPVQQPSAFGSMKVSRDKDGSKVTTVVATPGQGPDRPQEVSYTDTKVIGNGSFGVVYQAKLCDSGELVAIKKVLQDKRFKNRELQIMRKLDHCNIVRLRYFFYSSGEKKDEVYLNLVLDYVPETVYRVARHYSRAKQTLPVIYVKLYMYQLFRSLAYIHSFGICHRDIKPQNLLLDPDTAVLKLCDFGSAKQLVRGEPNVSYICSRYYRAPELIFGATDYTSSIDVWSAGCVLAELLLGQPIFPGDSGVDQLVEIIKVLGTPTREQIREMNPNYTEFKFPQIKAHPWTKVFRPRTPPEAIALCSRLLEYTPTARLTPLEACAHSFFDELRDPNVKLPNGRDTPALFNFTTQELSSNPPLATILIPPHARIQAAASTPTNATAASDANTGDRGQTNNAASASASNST

MARK1 = MARK1 (Homo sapiens, UniProt Q9P0L2); assay: KINOMEscan binding assay; details: read-out: % Ctrl @ 10000 nM
MEK2 = MEK2 (Homo sapiens, UniProt P36507); assay: KINOMEscan binding assay; details: read-out: % Ctrl @ 10000 nM
MST3 = MST3 (Homo sapiens, UniProt Q9Y6E0); assay: KINOMEscan binding assay; details: read-out: % Ctrl @ 10000 nM
MYLK4 = MYLK4 (Homo sapiens, UniProt Q86YV6); assay: KINOMEscan binding assay; details: read-out: % Ctrl @ 10000 nM
NEK11 = NEK11 (Homo sapiens, UniProt Q8NG66); assay: KINOMEscan binding assay; details: read-out: % Ctrl @ 10000 nM
PAK1 = PAK1 (Homo sapiens, UniProt Q13153); assay: KINOMEscan binding assay; details: read-out: % Ctrl @ 10000 nM
PHKG1 = PHKG1 (Homo sapiens, UniProt Q16816); assay: KINOMEscan binding assay; details: read-out: % Ctrl @ 10000 nM
PIK3CA (H1047Y) = PIK3CA (H1047Y) (Homo sapiens, UniProt P42336, H1047Y); assay: KINOMEscan binding assay; details: read-out: % Ctrl @ 10000 nM
PIM2 = PIM2 (Homo sapiens, UniProt Q9P1W9); assay: KINOMEscan binding assay; details: read-out: % Ctrl @ 10000 nM
SGK2 = SGK2 (Homo sapiens, UniProt Q9HBY8); assay: KINOMEscan binding assay; details: read-out: % Ctrl @ 10000 nM
SRPK2 = SRPK2 (Homo sapiens, UniProt P78362); assay: KINOMEscan binding assay; details: read-out: % Ctrl @ 10000 nM
STK39 = STK39 (Homo sapiens, UniProt Q9UEW8); assay: KINOMEscan binding assay; details: read-out: % Ctrl @ 10000 nM
ABL2/ARG = ABL2/ARG (Homo sapiens, UniProt P42684); assay: Kinase selectivity, % remaining activity; type: biochemical; details: 10 μM compound, 10 μM ATP, duplicate
Sequence of ABL2/ARG (P42684 whole entry): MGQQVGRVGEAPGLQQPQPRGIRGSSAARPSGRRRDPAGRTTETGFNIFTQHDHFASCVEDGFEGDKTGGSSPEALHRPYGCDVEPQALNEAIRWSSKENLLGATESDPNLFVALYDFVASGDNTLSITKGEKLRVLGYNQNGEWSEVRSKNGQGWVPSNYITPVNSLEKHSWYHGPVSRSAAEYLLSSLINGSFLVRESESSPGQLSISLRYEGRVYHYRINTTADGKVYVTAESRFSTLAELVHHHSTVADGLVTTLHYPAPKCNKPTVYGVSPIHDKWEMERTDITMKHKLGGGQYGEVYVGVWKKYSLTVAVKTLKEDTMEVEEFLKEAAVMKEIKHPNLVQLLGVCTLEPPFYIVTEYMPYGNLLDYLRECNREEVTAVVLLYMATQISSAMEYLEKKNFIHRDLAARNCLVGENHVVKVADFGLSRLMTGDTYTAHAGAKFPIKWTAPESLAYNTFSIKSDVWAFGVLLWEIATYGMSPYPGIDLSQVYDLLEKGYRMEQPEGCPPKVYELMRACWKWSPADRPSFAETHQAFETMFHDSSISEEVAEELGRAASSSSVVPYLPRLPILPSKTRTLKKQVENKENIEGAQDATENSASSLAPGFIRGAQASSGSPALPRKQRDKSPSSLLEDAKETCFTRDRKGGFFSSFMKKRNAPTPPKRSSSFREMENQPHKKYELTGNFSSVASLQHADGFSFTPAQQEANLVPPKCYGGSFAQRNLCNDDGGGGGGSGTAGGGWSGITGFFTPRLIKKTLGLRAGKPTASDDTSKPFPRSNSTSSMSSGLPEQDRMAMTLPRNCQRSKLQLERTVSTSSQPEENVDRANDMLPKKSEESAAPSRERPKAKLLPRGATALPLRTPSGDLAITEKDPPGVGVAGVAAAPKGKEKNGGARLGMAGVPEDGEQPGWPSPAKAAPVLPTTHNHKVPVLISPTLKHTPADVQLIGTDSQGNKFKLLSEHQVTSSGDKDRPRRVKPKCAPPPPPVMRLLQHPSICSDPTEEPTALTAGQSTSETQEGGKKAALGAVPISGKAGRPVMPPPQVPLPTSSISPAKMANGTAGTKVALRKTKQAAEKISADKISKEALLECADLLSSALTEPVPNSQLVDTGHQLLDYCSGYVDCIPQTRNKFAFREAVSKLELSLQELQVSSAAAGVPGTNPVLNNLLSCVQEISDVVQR
Summary of the method: (§1)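 First-tier selectivity panel: a single 10 μM concentration tested twice, ATP held at 10 μM, data reported as residual activity relative to DMSO.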

ALK5/TGFBR1 = target: T2, ALK5/TGFBR1 (Homo sapiens, UniProt P36897); assay: Kinase selectivity, % remaining activity; type: biochemical; details: 10 μM compound, 10 μM ATP, duplicate
T2 sequence (P36897 34-503): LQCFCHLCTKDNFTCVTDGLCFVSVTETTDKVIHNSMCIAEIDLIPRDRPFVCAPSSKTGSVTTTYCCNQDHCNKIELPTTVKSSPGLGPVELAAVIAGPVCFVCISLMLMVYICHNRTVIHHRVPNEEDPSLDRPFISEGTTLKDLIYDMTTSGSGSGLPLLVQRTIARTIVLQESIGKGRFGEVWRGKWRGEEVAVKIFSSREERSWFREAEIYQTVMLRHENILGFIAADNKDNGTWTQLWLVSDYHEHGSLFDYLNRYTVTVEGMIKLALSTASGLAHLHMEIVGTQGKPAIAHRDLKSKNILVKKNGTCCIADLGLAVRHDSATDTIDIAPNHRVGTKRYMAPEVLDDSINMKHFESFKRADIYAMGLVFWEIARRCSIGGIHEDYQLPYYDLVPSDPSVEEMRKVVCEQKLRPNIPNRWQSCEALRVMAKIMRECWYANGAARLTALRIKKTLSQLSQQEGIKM
Summary of the method: as §1

CDK5/p25 = CDK5/p25 (Homo sapiens, UniProt Q00535); assay: Kinase selectivity, % remaining activity; type: biochemical; details: 10 μM compound, 10 μM ATP, duplicate
Sequence of CDK5/p25 (Q00535 whole entry, species assumed): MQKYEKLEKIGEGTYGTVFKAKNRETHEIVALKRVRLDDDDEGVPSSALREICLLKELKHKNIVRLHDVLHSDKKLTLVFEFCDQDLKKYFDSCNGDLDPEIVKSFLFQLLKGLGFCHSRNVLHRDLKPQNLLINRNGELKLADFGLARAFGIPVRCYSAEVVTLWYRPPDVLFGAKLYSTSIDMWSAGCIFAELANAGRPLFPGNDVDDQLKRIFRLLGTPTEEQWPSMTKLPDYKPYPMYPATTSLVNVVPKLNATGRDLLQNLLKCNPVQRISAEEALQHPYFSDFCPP
Summary of the method: as §1

CK1g3 = CK1g3 (Homo sapiens, UniProt Q9Y6M4); assay: Kinase selectivity, % remaining activity; type: biochemical; details: 10 μM compound, 10 μM ATP, duplicate
Sequence of CK1g3 (Q9Y6M4 whole entry): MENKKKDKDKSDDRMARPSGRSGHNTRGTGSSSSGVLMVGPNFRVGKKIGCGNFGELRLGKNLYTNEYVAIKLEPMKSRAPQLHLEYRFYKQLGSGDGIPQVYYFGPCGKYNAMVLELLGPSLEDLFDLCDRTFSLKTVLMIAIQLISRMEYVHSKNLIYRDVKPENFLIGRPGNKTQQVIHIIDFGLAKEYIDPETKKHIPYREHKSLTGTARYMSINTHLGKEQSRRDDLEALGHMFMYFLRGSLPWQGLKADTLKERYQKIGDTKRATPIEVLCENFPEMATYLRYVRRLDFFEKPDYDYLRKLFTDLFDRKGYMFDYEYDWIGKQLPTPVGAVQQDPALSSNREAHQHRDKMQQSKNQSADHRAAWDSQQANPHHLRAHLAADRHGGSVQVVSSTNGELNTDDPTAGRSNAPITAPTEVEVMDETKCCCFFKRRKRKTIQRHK
Summary of the method: as §1

CLK2 = CLK2 (Homo sapiens, UniProt P49760); assay: Kinase selectivity, % remaining activity; type: biochemical; details: 10 μM compound, 10 μM ATP, duplicate
Sequence of CLK2 (P49760 whole entry): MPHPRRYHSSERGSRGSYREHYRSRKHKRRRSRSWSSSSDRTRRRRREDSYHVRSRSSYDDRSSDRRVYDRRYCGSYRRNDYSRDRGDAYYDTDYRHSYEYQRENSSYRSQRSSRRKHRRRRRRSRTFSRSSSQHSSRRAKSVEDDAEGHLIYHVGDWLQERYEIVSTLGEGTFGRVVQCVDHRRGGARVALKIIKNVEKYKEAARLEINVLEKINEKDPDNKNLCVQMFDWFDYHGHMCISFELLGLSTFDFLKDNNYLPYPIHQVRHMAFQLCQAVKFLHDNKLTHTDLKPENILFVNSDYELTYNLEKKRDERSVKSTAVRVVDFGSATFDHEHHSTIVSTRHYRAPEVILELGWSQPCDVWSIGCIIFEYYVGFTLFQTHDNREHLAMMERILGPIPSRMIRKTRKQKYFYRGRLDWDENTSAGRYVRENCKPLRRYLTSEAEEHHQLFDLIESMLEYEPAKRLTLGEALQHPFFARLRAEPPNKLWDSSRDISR
Summary of the method: as §1

DAPK1 = DAPK1 (Homo sapiens, UniProt P53355); assay: Kinase selectivity, % remaining activity; type: biochemical; details: 10 μM compound, 10 μM ATP, duplicate
Sequence of DAPK1 (P53355 whole entry): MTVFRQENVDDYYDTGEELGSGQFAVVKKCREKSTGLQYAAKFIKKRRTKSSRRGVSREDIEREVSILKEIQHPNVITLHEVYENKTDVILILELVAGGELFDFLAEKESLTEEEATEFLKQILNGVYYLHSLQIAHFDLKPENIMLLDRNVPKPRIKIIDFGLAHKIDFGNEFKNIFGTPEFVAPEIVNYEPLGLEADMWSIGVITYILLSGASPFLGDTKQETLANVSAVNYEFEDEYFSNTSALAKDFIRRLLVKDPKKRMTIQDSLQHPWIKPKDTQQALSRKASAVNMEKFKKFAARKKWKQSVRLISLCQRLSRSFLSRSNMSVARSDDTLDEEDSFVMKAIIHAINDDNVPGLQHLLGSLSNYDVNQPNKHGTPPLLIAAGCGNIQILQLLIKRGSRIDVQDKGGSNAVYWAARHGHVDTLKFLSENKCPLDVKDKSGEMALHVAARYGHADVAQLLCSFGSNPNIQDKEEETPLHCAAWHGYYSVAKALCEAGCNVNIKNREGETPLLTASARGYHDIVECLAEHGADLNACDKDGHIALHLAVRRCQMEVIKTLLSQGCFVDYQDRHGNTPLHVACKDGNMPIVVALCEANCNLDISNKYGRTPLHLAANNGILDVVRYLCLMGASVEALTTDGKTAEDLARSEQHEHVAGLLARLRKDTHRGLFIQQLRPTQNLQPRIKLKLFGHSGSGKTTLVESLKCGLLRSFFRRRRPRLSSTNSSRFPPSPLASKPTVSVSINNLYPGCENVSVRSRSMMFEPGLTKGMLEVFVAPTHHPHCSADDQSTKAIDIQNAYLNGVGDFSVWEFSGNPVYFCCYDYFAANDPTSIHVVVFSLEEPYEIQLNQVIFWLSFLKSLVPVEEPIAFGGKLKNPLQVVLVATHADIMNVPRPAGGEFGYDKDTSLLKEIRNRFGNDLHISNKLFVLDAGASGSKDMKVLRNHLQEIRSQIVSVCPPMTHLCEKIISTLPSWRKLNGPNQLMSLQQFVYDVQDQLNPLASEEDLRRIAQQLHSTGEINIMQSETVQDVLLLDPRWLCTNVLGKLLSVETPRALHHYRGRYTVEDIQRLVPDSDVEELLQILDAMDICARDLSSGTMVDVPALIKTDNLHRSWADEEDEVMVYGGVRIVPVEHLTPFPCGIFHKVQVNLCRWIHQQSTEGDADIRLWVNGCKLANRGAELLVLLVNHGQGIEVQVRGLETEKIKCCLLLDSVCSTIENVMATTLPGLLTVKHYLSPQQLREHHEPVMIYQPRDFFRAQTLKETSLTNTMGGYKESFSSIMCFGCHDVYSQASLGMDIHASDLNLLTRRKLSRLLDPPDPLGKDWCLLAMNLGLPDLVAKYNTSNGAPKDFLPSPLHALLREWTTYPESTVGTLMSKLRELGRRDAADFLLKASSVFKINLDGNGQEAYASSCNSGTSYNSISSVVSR
Summary of the method: as §1

FGFR1 = FGFR1 (Homo sapiens, UniProt P11362); assay: Kinase selectivity, % remaining activity; type: biochemical; details: 10 μM compound, 10 μM ATP, duplicate
Summary of the method: as §1

GSK3B [3] = target: T1, GSK3B; assay: Kinase selectivity, % remaining activity; type: biochemical; details: 10 μM compound, 10 μM ATP, duplicate
Summary of the method: as §1

MSK1/RPS6KA5 = MSK1/RPS6KA5 (Homo sapiens, UniProt O75582); assay: Kinase selectivity, % remaining activity; type: biochemical; details: 10 μM compound, 10 μM ATP, duplicate
Summary of the method: as §1

P38a/MAPK14 = P38a/MAPK14 (Homo sapiens, UniProt Q16539); assay: Kinase selectivity, % remaining activity; type: biochemical; details: 10 μM compound, 10 μM ATP, duplicate
Sequence of P38a/MAPK14 (Q16539 whole entry): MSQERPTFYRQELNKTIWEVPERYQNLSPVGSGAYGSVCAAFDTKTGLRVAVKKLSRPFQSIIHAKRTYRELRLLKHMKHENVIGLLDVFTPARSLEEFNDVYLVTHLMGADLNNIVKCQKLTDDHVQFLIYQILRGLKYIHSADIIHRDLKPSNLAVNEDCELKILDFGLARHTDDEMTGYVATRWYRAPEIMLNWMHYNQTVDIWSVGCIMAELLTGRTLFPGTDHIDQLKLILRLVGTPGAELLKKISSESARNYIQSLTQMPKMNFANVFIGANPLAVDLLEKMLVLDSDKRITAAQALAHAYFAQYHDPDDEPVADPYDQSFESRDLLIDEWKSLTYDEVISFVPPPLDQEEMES
Summary of the method: as §1

PIM3 = PIM3 (Homo sapiens, UniProt Q86V86); assay: Kinase selectivity, % remaining activity; type: biochemical; details: 10 μM compound, 10 μM ATP, duplicate
Summary of the method: as §1

ROCK1 = ROCK1 (Homo sapiens, UniProt Q13464); assay: Kinase selectivity, % remaining activity; type: biochemical; details: 10 μM compound, 10 μM ATP, duplicate
Summary of the method: as §1

TNIK = TNIK (Homo sapiens, UniProt Q9UKE5); assay: Kinase selectivity, % remaining activity; type: biochemical; details: 10 μM compound, 10 μM ATP, duplicate
Summary of the method: as §1

[4] = read-out: % of remaining activity (relative to DMSO)

CNc1c(C(N)=O)c2ccccn2c1C(=O)c1ccc(F)cc1 [Compound A, 2-methyl-amino-3-[(4-fluorophenyl)carbonyl]indolizine-1-carboxamide] showed a remaining binding at 10 µM [1] of 46%, a remaining binding at 10 µM (ALK (L1196M)) of 100% and a remaining binding at 10 µM (CSF1R-autoinhibited) of 100%. The remaining binding at 10 µM (DMPK) was 100%, the remaining binding at 10 µM (FGFR3 (G697C)) was 71% and the remaining binding at 10 µM (GSK3B [2]) was 86%. It also gave a remaining binding at 10 µM (MARK1) of 99%, a remaining binding at 10 µM (MEK2) of 24% and a remaining binding at 10 µM (MST3) of 71%. The remaining binding at 10 µM (MYLK4) was 43%, the remaining binding at 10 µM (NEK11) was 88% and the remaining binding at 10 µM (PAK1) was 71%. It also gave a remaining binding at 10 µM (PHKG1) of 97%, a remaining binding at 10 µM (PIK3CA (H1047Y)) of 80% and a remaining binding at 10 µM (PIM2) of 65%. It also gave a remaining binding at 10 µM (SGK2) of 100%, a remaining binding at 10 µM (SRPK2) of 100% and a remaining binding at 10 µM (STK39) of 81%. For the same compound, the “% of remaining activity (relative to DMSO)” value (ABL2/ARG; listed as Cmp A) was 70.98%, the remaining activity at 10 µM (ABL2/ARG; [4]) was 71.3% and the “% of remaining activity (relative to DMSO)” value (ALK5/TGFBR1; listed as Cmp A) was 109.38%. For the same compound, the remaining activity at 10 µM (ALK5/TGFBR1; [4]) was 110%, the “% of remaining activity (relative to DMSO)” value (CDK5/p25; listed as Cmp A) was 88.62% and the remaining activity at 10 µM (CDK5/p25; [4]) was 90.2%. For the same compound, the “% of remaining activity (relative to DMSO)” value (CK1g3; listed as Cmp A) was 97.24%, the remaining activity at 10 µM (CK1g3; [4]) was 98.5% and the “% of remaining activity (relative to DMSO)” value (CLK2; listed as Cmp A) was 105.40%. The remaining activity at 10 µM (CLK2; [4]) was 100%, the “% of remaining activity (relative to DMSO)” value (DAPK1; listed as Cmp A) was 124.50% and the remaining activity at 10 µM (DAPK1; [4]) was 134%. The “% of remaining activity (relative to DMSO)” value (FGFR1; listed as Cmp A) was 95.15%, the remaining activity at 10 µM (FGFR1; [4]) was 95.7% and the “% of remaining activity (relative to DMSO)” value (GSK3B [3]; listed as Cmp A) was 122.02%. For the same compound, the remaining activity at 10 µM (GSK3B [3]; [4]) was 124%, the “% of remaining activity (relative to DMSO)” value (MSK1/RPS6KA5; listed as Cmp A) was 111.83% and the remaining activity at 10 µM (MSK1/RPS6KA5; [4]) was 117%. For the same compound, the “% of remaining activity (relative to DMSO)” value (P38a/MAPK14; listed as Cmp A) was 34.47* %, the remaining activity at 10 µM (P38a/MAPK14; [4]) was 35.3% and the “% of remaining activity (relative to DMSO)” value (PIM3; listed as Cmp A) was 119.96%. For the same compound, the remaining activity at 10 µM (PIM3; [4]) was 125%, the “% of remaining activity (relative to DMSO)” value (ROCK1; listed as Cmp A) was 96.14% and the remaining activity at 10 µM (ROCK1; [4]) was 95.5%. The “% of remaining activity (relative to DMSO)” value (TNIK; listed as Cmp A) was 94.12% and the remaining activity at 10 µM (TNIK; [4]) was 94.4%.
